Data from US6147097A, “Imidazole derivatives as anti-HIV agents” (Shionogi & Co., Ltd., priority 1994, dated 2000).
Converted amounts (≈) assume the structure as drawn. Where two headings read alike, the source gives them in different places.

Legend:
[1] = biological target: T1, purified recombinant HIV-1 reverse transcriptase (Human immunodeficiency virus type 1 group M subtype B, UniProt P04585); experiment: reverse transcriptase inhibition, poly(rA)/(dT) template primer, [3H]dTTP uptake; type: biochemical
T1 construct: purified recombinant HIV-1 reverse transcriptase; made in house; host or cells: Escherichia coli
In short: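 Inhibition reported as percent reduction of [3H]dTTP incorporation relative to solvent control, after 1 h at 37 °C at pH 8.3. Recombinant RT from E. coli, poly(rA) template with oligo(dT) primer, 4 μM unlabeled dTTP as substrate; product collected on DEAE filter mats.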

[2] = cytotoxicity in MT-4 cells (MTT, culture medium in place of HIV); type: cell-based; details: human
In short: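 Uninfected readout: compound-treated MT-4 cultures, 3.5×10^4 cells/well, received medium in place of virus and were kept 5 days at 37° C. Viability measured by 1 h MTT reduction, solubilized formazan read at 560/690 nm relative to control wells.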

HIV (HTLV-IIIB strain) = experiment: microbe, parasite or virus in culture; type: cell-based; details: Human immunodeficiency virus 1, IIIB, MT4, 120 h
In short: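 Protection from virus was read as viable-cell MTT conversion to formazan after 5 days at 37° C. The cultures contained MT-4 cells (3.5×10^4/well), compound dilutions and 60 pfu HIV per well.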

[3] = MT-4 cells, no virus, 37° C., 5 days, MTT, Table 3, read-out: CC50
[4] = MT-4 cells, 60 pfu HIV per well, 37° C., 5 days, MTT, Tables 1 and 2, read-out: EC50

SMILES	IC50 [1]	CC50 at 120 h [2, 3]	EC50 (HIV (HTLV-IIIB strain))	EC50 (HIV (HTLV-IIIB strain); [4])	IC50 ([1]; read-out: RT IC50, pH 8.3, 37° C., 1 hour, Tables 5 and 6)	CC50 at 120 h ([2]; mt-4 cells)
CC(C)c1nc(COC(N)=O)n(Cc2ccccc2)c1Sc1cccc([N+](=O)[O-])c1 [Compound I-47, 1-benzyl-2-carbamoyloxymethyl-4-isopropyl-5-(3-nitrophenylthio)-1H-imidazole]	2300 nM	6.3 to 12.5 µg/mL (≈ 14.8 to 29.3 µM)	0.002 µg/mL (≈ 0.00469 µM)			
C=CCn1c(COC(N)=O)nc(C(C)C)c1Sc1cccc([N+](=O)[O-])c1 [Compound I-48, 1-allyl-2-carbamoyloxymethyl-4-isopropyl-5-(3-nitrophenylthio)-1H-imidazole]	1200 nM	25 to 50 µg/mL (≈ 66.4 to 133 µM)		0.016 µg/mL (≈ 0.0425 µM)		
CCCn1c(COC(N)=O)nc(C(C)C)c1Sc1cc(Cl)cc(Cl)c1 [Compound I-51, 2-carbamoyloxymethyl-5-(3,5-dichlorophenylthio)-4-isopropyl-1-n-propyl-1H-imidazole]	944 nM	6.3 to 12.5 µg/mL (≈ 15.7 to 31.1 µM)		0.003 to 0.005 µg/mL (≈ 0.00746 to 0.0124 µM)		
CCn1c(COC(N)=O)nc(C(C)C)c1Sc1cc(Cl)cc(Cl)c1 [Compound I-52, 2-carbamoyloxymethyl-5-(3,5-dichlorophenylthio)-1-ethyl-4-isopropyl-1H-imidazole]	464 nM	10 µg/mL (≈ 25.8 µM)	0.003 µg/mL (≈ 0.00773 µM)			
CCn1c(COC(N)=O)nc(C(C)C)c1Sc1cccc(Cl)c1 [Compound I-53, 2-carbamoyloxymethyl-5-(3-chlorophenylthio)-1-ethyl-4-isopropyl-1H-imidazole]	593 nM	10 to 100 µg/mL (≈ 28.3 to 283 µM)	0.004 to 0.008 µg/mL (≈ 0.0113 to 0.0226 µM)			
CCCn1c(COC(N)=O)nc(C(C)C)c1Sc1cccc(Cl)c1 [Compound I-54, 2-carbamoyloxymethyl-5-(3-chlorophenylthio)-4-isopropyl-1-n-propyl-1H-imidazole]	1250 nM	12.5 µg/mL (≈ 34 µM)	0.004 µg/mL (≈ 0.0109 µM)			
CC(C)c1nc(COC(N)=O)n(CC(F)(F)F)c1Sc1cc(Cl)cc(Cl)c1 [Compound I-55, 2-carbamoyloxymethyl-5-(3,5-dichlorophenylthio)-4-isopropyl-1-(1,1,1-trifluoroethyl)-1H-imidazole]	5650 nM	10 to 100 µg/mL (≈ 22.6 to 226 µM)		0.008 µg/mL (≈ 0.0181 µM)		
CC(C)c1nc(COC(N)=O)n(CF)c1Sc1cc(Cl)cc(Cl)c1 [Compound I-56, 2-carbamoyloxymethyl-5-(3,5-dichlorophenylthio)-1-fluoromethyl-4-isopropyl-1H-imidazole]	2370 nM	10 to 100 µg/mL (≈ 25.5 to 255 µM)	0.008 µg/mL (≈ 0.0204 µM)			
CCn1c(COC(N)=O)nc(C(C)C)c1Sc1cccc(F)c1 [Compound I-57, 2-carbamoyloxymethyl-1-ethyl-5-(3-fluorophenylthio)-4-isopropylethyl-1H-imidazole]		25 to 50 µg/mL (≈ 74.1 to 148 µM)	0.0005 to 0.001 µg/mL (≈ 0.00148 to 0.00296 µM)		119 nM	
CCn1c(COC(N)=O)nc(C(C)C)c1Sc1cc(F)cc(F)c1 [Compound I-58, 2-carbamoyloxymethyl-5-(3,5-difluorophenylthio)-1-ethyl-4-isopropyl-1H-imidazole]	422 nM	10 to 100 µg/mL (≈ 28.1 to 281 µM)	0.002 µg/mL (≈ 0.00563 µM)			
CC(C)c1c(Sc2cccc(Cl)c2)nc(COC(N)=O)n1C [Compound I-59, 2-carbamoyloxymethyl-4-(3-chlorophenylthio)-5-isopropyl-1-methylimidazole]	> 294000 nM	12.5 to 25 µg/mL (≈ 36.8 to 73.6 µM)	12.5 µg/mL (≈ 36.8 µM)			
CC(=O)OCCOCc1nc(C(C)C)c(Sc2cc(Cl)cc(Cl)c2)n1C [Compound I-60, 2-{[5-(3,5-dichlorophenylthio)-4-isopropyl-1-methylimidazol-2-yl]methoxy} ethyl acetate]	> 240000 nM	12.5 to 25 µg/mL		≥ 0.5 µg/mL		
CC(C)c1nc(COCCOC(N)=O)n(C)c1Sc1cc(Cl)cc(Cl)c1 [Compound I-61, (2-carbamoyloxy)ethoxymethyl-5-(3,5-dichlorophenylthio)-4-isopropyl-1-methyl-1H-imidazole]	185000 nM	6.3 to 12.5 µg/mL (≈ 15.1 to 29.9 µM)		0.5 µg/mL (≈ 1.2 µM)		
CCn1c(COCCOC(C)=O)nc(C(C)C)c1Sc1cc(Cl)cc(Cl)c1 [Compound I-62, 2-{[5-(3,5-dichlorophenylthlio)-1-ethyl-4-isopropyl-1H-imidazol-2-yl]methoxy} ethyl acetate]	15800 nM	12.5 to 25 µg/mL		0.03 to 0.06 µg/mL		
CCn1c(COCCOC(N)=O)nc(C(C)C)c1Sc1cc(Cl)cc(Cl)c1 [Compound I-63, 2-(2-carbamoyloxyethoxy)methyl-5-(3,5-dichlorophenylthio)-1-ethyl-4-isopropyl-1H-imidazole]	10900 nM	12.5 µg/mL (≈ 28.9 µM)		0.25 µg/mL (≈ 0.578 µM)		
CC(C)c1nc(CN)n(C)c1Sc1cc(Cl)cc(Cl)c1.O=C(O)C(=O)O [Compound I-66, 2-aminomethyl-5-(3,5-dichlorophenylthio)-4-isopropyl-1-methylimidazole oxalate]	1640 nM	6.3 to 12.5 µg/mL		0.016 µg/mL		
CC(C)c1nc(CN)n(C)c1Sc1cccc([N+](=O)[O-])c1 [Compound I-67, 2-aminomethyl-4-isopropyl-1-methyl-5-(3-nitrophenylthio)-1H-imidazole]	17600 nM	12.5 to 25 µg/mL (≈ 40.8 to 81.6 µM)		0.13 to 0.25 µg/mL (≈ 0.424 to 0.816 µM)		
CC(C)c1nc(CN)n(C)c1Sc1cccc(Cl)c1.Cl [Compound I-69, 2-aminomethyl-5-(3-chlorophenylthio)-4-isopropyl-1-methyl-1H-imidazole hydrochloride]	6920 nM			0.25 µg/mL		6.3 µg/mL
CC(C)c1nc(CN)n(Cc2ccccc2)c1Sc1cc(Cl)cc(Cl)c1 [Compound I-70, 2-aminomethyl-1-benzyl-5-(3,5-dichlorophenylthio)-4-isopropylimidazole]	4430 nM	6.3 to 12.5 µg/mL (≈ 15.5 to 30.8 µM)		0.03 µg/mL (≈ 0.0738 µM)		
CCn1c(CN)nc(C(C)C)c1Sc1cc(Cl)cc(Cl)c1 [Compound I-71, 2-aminomethyl-5-(3,5-dichlorophenylthio)-1-ethyl-4-isopropyl-1H-imidazole]	987 nM	1 to 10 µg/mL (≈ 2.9 to 29 µM)		0.008 µg/mL (≈ 0.0232 µM)		
CC(C)c1nc(CN)n(C(C)C)c1Sc1cc(Cl)cc(Cl)c1 [Compound I-72, 2-aminomethyl-5-(3,5-dichlorophenylthio)-1,4-diisopropylimidazole]	2230 nM	1 to 10 µg/mL (≈ 2.79 to 27.9 µM)		0.03 to 0.06 µg/mL (≈ 0.0837 to 0.167 µM)		
CCn1c(CN)nc(C(C)C)c1Sc1cccc(Cl)c1 [Compound I-73, 2-aminomethyl-5-(3-chlorophenylthio)-1-ethyl-4-isopropylimidazole]	807 nM			0.016 µg/mL (≈ 0.0516 µM)		6.3 µg/mL (≈ 20.3 µM)
CC(C)c1nc(CN)n(C)c1Sc1ccccc1 [Compound I-74, 2-aminomethyl-4-isopropyl-1-methyl-5-phenylthioimidazole]	21800 nM	12.5 to 25 µg/mL (≈ 47.8 to 95.6 µM)		0.25 µg/mL (≈ 0.956 µM)		
CCn1c(CN)nc(C(C)C)c1Sc1ccccc1 [Compound I-75, 2-aminomethyl-1-ethyl-4-isopropyl-5-phenylthio-1H-imidazole]	799 nM			0.01 µg/mL (≈ 0.0363 µM)		16.5 µg/mL (≈ 59.9 µM)
CC(C)c1nc(CN)n(CC(F)(F)F)c1Sc1cc(Cl)cc(Cl)c1 [Compound I-76, 2-aminomethyl-5-(3,5-dichlorophenylthio)-4-isopropyl-1-(2,2,2-trifluoroethyl)-1H-imidazole]	8790 nM	6.3 to 12.5 µg/mL (≈ 15.8 to 31.4 µM)		0.016 µg/mL (≈ 0.0402 µM)		
CC(C)c1nc(CN(C)C)n(C)c1Sc1cc(Cl)cc(Cl)c1 [Compound I-78, 5-(3,5-dichlorophenylthio)-2-dimethylaminomethyl-4-isopropyl-1-methyl-1H-imidazole]	129000 nM	1 to 10 µg/mL (≈ 2.79 to 27.9 µM)		1 µg/mL (≈ 2.79 µM)		
CC(C)c1nc(CNCCO)n(C)c1Sc1cc(Cl)cc(Cl)c1 [Compound I-79, 2-{[5-(3,5-dichlorophenylthio)-4-isopropyl-1-methyl-1H-imidazol-2-yl]methylamino} ethanol]	34500 nM	1 to 10 µg/mL (≈ 2.67 to 26.7 µM)		0.25 µg/mL (≈ 0.668 µM)		
CC(C)c1nc(CC(=O)O)n(C)c1Sc1cc(Cl)cc(Cl)c1 [Compound I-80, [5-(3,5-dichlorophenylthio)-4-isopropyl-1-nethyl-1H-imidazol-2-yl]acetic acid]	3060 nM	10 to 100 µg/mL (≈ 27.8 to 278 µM)		0.5 to 1 µg/mL (≈ 1.39 to 2.78 µM)		
